Key:
Format in all cases: cell-based
[1] = system: CCRF-CEM; assay: cytotoxic MTS test, CCRF-CEM; settings: Homo sapiens; CCRF-CEM cells
Text: (§1) To evaluate the antitumor activity of newly prepared compounds for in vitro conditions, we used cytotoxic MTS test (Nosková V. et al., Neoplasma 2002, 49, 418-425) on cell lines derived from normal tissues or tumors. Specifically, cell lines K562 (human acute myeloid leukemia); K562-Tax (human acute myeloid leukemia, paclitaxel resistant subline, overexpress multiple drug resistant protein PgP); CEM (T-lymfoblastic leukemia); CEM-DNR-bulk (T-lymfoblastic leukemia, doxorubicin resistant); A549 (human lung adenocarcinoma); HCT116p53 wt (human colorectal cancer, wild-type); HCT116p53−/−(human colorectal cancer, mutant p53) a U2OS (human bone osteosarcoma) were used. Express characteristics, susceptibility profiles of classic antitumor drugs as well as methodology of cytotoxic MTS test have been repeatedly published (Denizot, F.; Lang, R., J. Immunol. Meth. 1986, 89, 271-277; Noskova, V., see above; Šarek J. et al., J, Med. Chem., 2003, 46, 5402-5415).

[2] = system: MRC-5 (normal human fibroblasts); assay: cytotoxic MTS test, MRC-5; settings: MRC5, MRC-5 cells
[3] = system: HCT116p53−/− (human colorectal cancer, mutant p53); assay: cytotoxic MTS test, HCT116p53; settings: HCT116p53 cells
Text: as §1

[4] = system: A549 (human lung adenocarcinoma); assay: cytotoxic MTS test, A549; settings: A549 cells
Text: as §1

[5] = system: K562-Tax (human acute myeloid leukemia, paclitaxel resistant subline); assay: cytotoxic MTS test, K562-TAX; settings: K562-TAX cells
Text: as §1

[6] = system: HL 60; assay: cytotoxic MTS test, HL 60; settings: Homo sapiens; HL 60 cells
[7] = system: BJ (normal human fibroblasts); assay: cytotoxic MTS test, BJ; settings: BJ cells
[8] = system: HeLa; assay: cytotoxic MTS test, HeLa; settings: Homo sapiens; HeLa cells
[9] = system: HCT116p53 wt (human colorectal cancer, wild-type); assay: cytotoxic MTS test, HCT116; settings: HCT-116, HCT116 cells
Text: as §1

[10] = system: CEM (T-lymfoblastic leukemia); assay: cytotoxic MTS test, CEM; settings: Homo sapiens, CCRF-CEM; CEM cells
Text: as §1

[11] = system: U2OS (human bone osteosarcoma); assay: cytotoxic MTS test, U2OS; settings: U2OS cells
Text: as §1

[12] = system: Hep G2; assay: cytotoxic MTS test, Hep G2; settings: Homo sapiens, HepG2; Hep G2 cells
[13] = system: K562 (human acute myeloid leukemia); assay: cytotoxic MTS test, K562; settings: K562 cells
Text: as §1

[14] = system: CEM-DNR-bulk (T-lymfoblastic leukemia, doxorubicin resistant); assay: cytotoxic MTS test, CEM-DNR; settings: Homo sapiens; CEM-DNR cells
Text: as §1

**Q.** `Cc1ncnc2c1c1ccncc1n2[C@@H]1O[C@H](CO)[C@@H](O)[C@H]1O` [Compound 2d, 4-methyl-9-(β-D-ribofuranosyl)-9H-pyrido[4′,3′:4,5]pyrrolo[2,3-d]pyrimidine] was tested. Which IC50 [1] did it give?
**A.** 200 to 900 nM

**Q.** What about the IC50 [2] of the same compound?
**A.** > 50 µM

**Q.** And the IC50 [3]?
**A.** 0.9 to 10 µM

**Q.** What about the IC50 [4] of the same compound?
**A.** > 50 µM

**Q.** What about the IC50 [5] of the same compound?
**A.** 0.9 to 10 µM

**Q.** What about the IC50 [6] of the same compound?
**A.** 200 to 900 nM

**Q.** What about the IC50 [7] of the same compound?
**A.** 0.9 to 10 µM

**Q.** And the IC50 [8]?
**A.** 0.9 to 10 µM

**Q.** What about the IC50 [9] of the same compound?
**A.** 0.9 to 10 µM

**Q.** And the IC50 [10]?
**A.** 200 to 900 nM

**Q.** What about the IC50 [11] of the same compound?
**A.** 0.9 to 10 µM

**Q.** What about the IC50 [12] of the same compound?
**A.** 0.9 to 10 µM

**Q.** And the IC50 [13]?
**A.** 0.9 to 10 µM

**Q.** And the IC50 [14]?
**A.** 0.9 to 10 µM

**Q.** `OC[C@H]1O[C@@H](n2c3cnccc3c3c(-c4ccoc4)ncnc32)[C@H](O)[C@@H]1O` [Compound 2g, 4-(furan-3-yl)-9-(β-D-ribofuranosyl)-9H-pyrido[4′,3′:4,5]pyrrolo[2,3-d]pyrimidine] was tested. Which IC50 [1] did it give?
**A.** > 50000 nM

**Q.** What about the IC50 [2] of the same compound?
**A.** > 50 µM

**Q.** And the IC50 [3]?
**A.** > 50 µM

**Q.** And the IC50 [4]?
**A.** > 50 µM

**Q.** And the IC50 [5]?
**A.** > 50 µM

**Q.** What about the IC50 [6] of the same compound?
**A.** > 50000 nM

**Q.** And the IC50 [7]?
**A.** > 50 µM

**Q.** And the IC50 [8]?
**A.** > 50 µM

**Q.** What about the IC50 [9] of the same compound?
**A.** > 50 µM

**Q.** What about the IC50 [10] of the same compound?
**A.** > 50000 nM

**Q.** And the IC50 [11]?
**A.** > 50 µM

**Q.** And the IC50 [12]?
**A.** > 50 µM

**Q.** What about the IC50 [13] of the same compound?
**A.** > 50 µM

**Q.** What about the IC50 [14] of the same compound?
**A.** > 50 µM

**Q.** Which IC50 [1] does the source give for `Nc1ncnc2c1c1ccncc1n2[C@@H]1O[C@H](CO)[C@@H](O)[C@H]1O` [Compound 2c, 4-amino-9-(β-D-ribofuranosyl)-9H-pyrido[4′,3′:4,5]pyrrolo[2,3-d]pyrimidine] here?
**A.** 200 to 900 nM

**Q.** And the IC50 [2]?
**A.** > 50 µM

**Q.** What about the IC50 [3] of the same compound?
**A.** 0.2 to 0.9 µM

**Q.** What about the IC50 [4] of the same compound?
**A.** 0.9 to 10 µM

**Q.** And the IC50 [5]?
**A.** 0.9 to 10 µM

**Q.** What about the IC50 [6] of the same compound?
**A.** 200 to 900 nM

**Q.** What about the IC50 [7] of the same compound?
**A.** 0.9 to 10 µM

**Q.** And the IC50 [8]?
**A.** 0.9 to 10 µM

**Q.** And the IC50 [9]?
**A.** 0.2 to 0.9 µM

**Q.** And the IC50 [10]?
**A.** 200 to 900 nM

**Q.** And the IC50 [11]?
**A.** 0.2 to 0.9 µM

**Q.** What about the IC50 [12] of the same compound?
**A.** 0.2 to 0.9 µM

**Q.** What about the IC50 [13] of the same compound?
**A.** 0.2 to 0.9 µM

**Q.** What about the IC50 [14] of the same compound?
**A.** 0.9 to 10 µM

**Q.** `OC[C@H]1O[C@@H](n2c3cnccc3c3c(-c4ccco4)ncnc32)[C@H](O)[C@@H]1O` [Compound 2f, 4-(furan-2-yl)-9-(β-D-ribofuranosyl)-9H-pyrido[4′,3′:4,5]pyrrolo[2,3-d]pyrimidine] was tested. Which IC50 [1] did it give?
**A.** > 50000 nM

**Q.** What about the IC50 [2] of the same compound?
**A.** > 50 µM

**Q.** What about the IC50 [3] of the same compound?
**A.** > 50 µM

**Q.** What about the IC50 [4] of the same compound?
**A.** > 50 µM

**Q.** What about the IC50 [5] of the same compound?
**A.** > 50 µM

**Q.** What about the IC50 [6] of the same compound?
**A.** > 50000 nM

**Q.** What about the IC50 [7] of the same compound?
**A.** > 50 µM

**Q.** And the IC50 [8]?
**A.** > 50 µM

**Q.** And the IC50 [9]?
**A.** > 50 µM

**Q.** What about the IC50 [10] of the same compound?
**A.** > 50000 nM

**Q.** And the IC50 [11]?
**A.** > 50 µM

**Q.** What about the IC50 [12] of the same compound?
**A.** > 50 µM

**Q.** What about the IC50 [13] of the same compound?
**A.** > 50 µM

**Q.** What about the IC50 [14] of the same compound?
**A.** > 50 µM

Source: US11299510B2, “Substituted pyridopyrrolopyrimidine ribonucleosides for therapeutic uses” (USTAV ORGANICKE CHEMIE A BIOCHEMIE AV CR, V.V.I., priority 2018, dated 2022)
